Tests used:
MV-4-11 cells = assay: Oncology cell growth assay MV-4-11 (CellTiter Glo); type: cell-based; conditions: Homo sapiens, MV4-11, 72 h; MV-4-11, 3d growth; read-out: Cell activity (IC50 μM) MV-4-11 3d-Growth
Procedure, shortened: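 Growth read by CellTiter Glo luminescence after 72 h compound treatment of MLL-AF4-bearing MV-4-11 cells (3000/well). Titration: 8 points, 1:3 steps, maximum 10 μM, 0.2% DMSO final. Data normalized to DMSO wells, four-parameter fit gives pIC50.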

BRD4-BD12 (1-477) = BRD4-BD12 (1-477) (Homo sapiens (Human), UniProt O60885); assay: Alphascreen binding assay BRD4-BD12; conditions: BRD4(1 2) H4; read-out: Biochemical activity (IC50 μM) BRD4(1 2) H4
Procedure, shortened: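 In this competition format, compounds displace a biotinylated tetra-acetyl H4 peptide from E. coli-expressed human BRD4 bromodomain constructs captured on nickel chelate beads. The reaction runs at pH 7.5 with 2 mM DTT and detergent for 1 h at room temperature before a 30 min bead step.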

bromodomain = assay: at least one of the bromodomain cell assays of Example 57; type: cell-based; conditions: at least one of the bromodomain cell assays described in Example 57; read-out: IC50 in at least one of the bromodomain cell assays

SMILES | IC50 (MV-4-11 cells) | IC50 (BRD4-BD12 (1-477)) | IC50 (bromodomain)
COC(=O)c1ccc(-c2cn(CC3CCCCCCC3)c3cc(-c4c(C)noc4C)cnc23)cc1 [P-0578, methyl 4-[1-(cyclooctylmethyl)-6-(3,5-dimethylisoxazol-4-yl)pyrrolo[3,2-b]pyridin-3-yl]benzoate] | 1 to 10 µM | < 1 µM | < 10 µM
Cc1noc(C)c1-c1cnc2c(-c3ccc(C(=O)O)cc3)cn(CC3CCCCCCC3)c2c1 [P-0579, 4-[1-(cyclooctylmethyl)-6-(3,5-dimethylisoxazol-4-yl)pyrrolo[3,2-b]pyridin-3-yl]benzoic acid] | < 1 µM | < 1 µM | < 10 µM
Cc1noc(C)c1-c1cnc2c(I)cn(CC3CCC4(CC3)CC4)c2c1 [P-0580, 4-[3-iodo-1-(spiro[2.5]octan-6-ylmethyl)pyrrolo[3,2-b]pyridin-6-yl]-3,5-dimethyl-isoxazole] | < 1 µM | < 1 µM | < 10 µM
COC(=O)c1ccc(-c2cn(CC3CCC4(CC3)CC4)c3cc(-c4c(C)noc4C)cnc23)cc1 [P-0581, methyl 4-[6-(3,5-dimethylisoxazol-4-yl)-1-(spiro[2.5]octan-6-ylmethyl)pyrrolo[3,2-b]pyridin-3-yl]benzoate] | 1 to 10 µM | < 1 µM | < 10 µM
Cc1noc(C)c1-c1cnc2c(-c3ccc(C(=O)O)cc3)cn(CC3CCC4(CC3)CC4)c2c1 [P-0582, 4-[6-(3,5-dimethylisoxazol-4-yl)-1-(spiro[2.5]octan-6-ylmethyl)pyrrolo[3,2-b]pyridin-3-yl]benzoic acid] | < 1 µM | < 1 µM | < 10 µM
Cc1noc(C)c1-c1cnc2c(-c3ccc(C(=O)O)cc3)cn([C@H](C)c3ccccc3)c2c1 [P-0583, 4-[6-(3,5-dimethylisoxazol-4-yl)-1-[(1R)-1-phenylethyl]pyrrolo[3,2-b]pyridin-3-yl]benzoic acid] | < 1 µM | < 1 µM | < 10 µM
CCNC(=O)Nc1ccc(-c2cn(CC3CCC(F)(F)CC3)c3cc(-c4c(C)noc4C)cnc23)cn1 [P-0584, 1-[5-[1-[(4,4-difluorocyclohexyl)methyl]-6-(3,5-dimethylisoxazol-4-yl)pyrrolo[3,2-b]pyridin-3-yl]-2-pyridyl]-3-ethyl-urea] | < 1 µM | < 1 µM | < 10 µM
COC(=O)c1ccc(-c2cn(CC3CCCCCC3)c3cc(-c4c(C)noc4C)cnc23)cc1 [P-0585, methyl 4-[1-(cycloheptylmethyl)-6-(3,5-dimethylisoxazol-4-yl)pyrrolo[3,2-b]pyridin-3-yl]benzoate] | 1 to 10 µM | < 1 µM | < 10 µM
Cc1noc(C)c1-c1cnc2c(-c3ccc(C(=O)O)cc3)cn(CC3CCCCCC3)c2c1 [P-0586, 4-[1-(cycloheptylmethyl)-6-(3,5-dimethylisoxazol-4-yl)pyrrolo[3,2-b]pyridin-3-yl]benzoic acid] | < 1 µM | < 1 µM | < 10 µM
Cc1noc(C)c1-c1cnc2c(-c3ccc(CC(=O)O)cc3)cn(CC3CCCCCC3)c2c1 [P-0587, 2-[4-[1-(cycloheptylmethyl)-6-(3,5-dimethylisoxazol-4-yl)pyrrolo[3,2-b]pyridin-3-yl]phenyl]acetic acid] | < 1 µM | < 1 µM | < 10 µM
COC(=O)Cc1ccc(-c2cn(CC3CCCC3)c3cc(-c4c(C)noc4C)cnc23)cc1 [P-0588, methyl 2-[4-[1-(cyclopentylmethyl)-6-(3,5-dimethylisoxazol-4-yl)pyrrolo[3,2-b]pyridin-3-yl]phenyl]acetate] | < 1 µM | < 1 µM | < 10 µM
COC(=O)Cc1ccc(-c2cn(CC3CCCCC3)c3cc(-c4c(C)noc4C)cnc23)cc1 [P-0589, methyl 2-[4-[1-(cyclohexylmethyl)-6-(3,5-dimethylisoxazol-4-yl)pyrrolo[3,2-b]pyridin-3-yl]phenyl]acetate] | < 1 µM | < 1 µM | < 10 µM
